We go through 1 compound from PMC10574767, “Extractives from Artemisia afra with Anti-Bacterial and Anti-Fungal Properties” (Plants, 2023).

Structures are written as SMILES. Converted amounts (≈) assume the structure as drawn.

Data set [1] deals with Salmonella Typhimurium ATCC 39183. The experiment in a line: Serial dilution microplate MIC. Format: cell-based. Conditions: Table 2. The protocol:
(§1) The MIC value of the plant extracts and isolated compounds against one fungal and five bacterial strains (Salmonella Typhimurium ATCC 39183, Escherichia coli ATCC 25922, Pseudomonas aeruginosa ATCC 27853, Staphylococcus aureus ATCC 29213, Enterococcus faecalis ATCC 29212, and fungi culture, Candida albicans ATCC 10231) was assessed in triplicate using the serial dilution microplate method; acetone and DMSO were used as solvents. Bacterial cultures were grown in Mueller Hinton broth (Sigma Aldrich, St. Louis, MO, USA) overnight and adjusted to McFarland standard 1 (1 × 10^8 CFU/mL). Then, 100 µL of samples were transferred into the first well of a sterile 96-well microtiter plate, which contained 100 µL of water and a 1:1 serial dilution with sterilized distilled water was carried out. In each well, 100 µL of appropriately adjusted fungal or bacterial cultures were added, and the bacteria were subjected to final concentrations of 250–3.9 μg/mL for pure compounds and 2.5–0.02 mg/mL for crude extracts. Amphotericin-B and Gentamicin (Virbac, Carros, France) served as positive controls for fungi and bacteria, respectively. For sterility, water served as control, while acetone served as a negative control. The microplates were then incubated for 24 h at 37 °C. Following incubation, 40 µL of 0.2 mg/mL p-iodonitrotetrazolium violet (INT, Sigma Aldrich) dissolved in water (hot) was added to the wells before being incubated at 37 °C for another 2 h. In the case of fungi, the INT was added before incubation. The MIC was measured visually as the lowest concentration of the compounds/extracts that inhibited proliferation.

For data set [2], the system named is Escherichia coli ATCC 25922. Kind of data set: Serial dilution microplate MIC. Format: cell-based. The settings on record: Table 2. The protocol:
as §1

The test system of data set [3] is Enterococcus faecalis ATCC 29212. The experiment in a line: Serial dilution microplate MIC. The data set is classed as cell-based. The settings on record: Table 2. The protocol:
as §1

Data set [4] concerns Pseudomonas aeruginosa ATCC 27853. Kind of data set: Serial dilution microplate MIC. Format: cell-based. Conditions: Table 2. The protocol: as §1
The test system of data set [5] is Staphylococcus aureus ATCC 29213. The experiment in a line: Serial dilution microplate MIC. The settings on record: Table 2. Format: cell-based. As for the experimental part: as §1
Data set [6] in a line: in vitro. Conditions: monkey, LC50. As for the experimental part: Cytotoxicity of compounds and extracts was tested against mammalian cells using the MTT assay. MCF-7 cancer cells were grown in a 5% CO2 incubator in Dulbecco’s Modified Eagle’s Medium (DMEM, Highveld Biological, Johannesburg, South Africa) supplemented with 10% fetal calf serum (Adcock-Ingram, Johannesburg, South Africa) and 1% penicillin-streptomycin (10,000 U/mL and 10 mg/mL streptomycin, Sigma Aldrich). In a 5% CO2 incubator, Vero cells were grown in a minimal essential medium (MEM, Highveld Biological, South Africa) supplemented with 5% fetal calf serum (Adcock-Ingram) and 0.1% gentamicin (Virbac). Cell suspensions were obtained from 70–80% confluent monolayer cultures and were plated in 96-well cell culture plates at a density of 1 × 10^4. Plates were incubated in a 5% CO2 incubator for 24 h at 37 °C. The cells were exposed to the extracts or compounds dissolved in the media at different concentrations for 48 h. Positive and negative controls were doxorubicin (Pfizer, New York, NYC, USA) and acetone or DMSO, respectively. After that, the wells were rinsed with phosphate-buffered saline (PBS, Sigma) and 200 µL of fresh medium was poured into the wells. Thirty microlitres (5 mg/mL) of MTT (Sigma) dissolved in PBS was added to each well, and the plates were incubated at 37 °C for 4 h. The medium from the wells was removed, rinsed, and 50 µL of 100% DMSO was added to the wells. At a wavelength of 570 nm, absorbance was measured using a microplate reader (BioTek Synergy, Beijing, China). Each sample concentration was tested in quadruplicate in two repeats (n = 8), and the concentration causing 50% inhibition of cell viability (LC50) was calculated. Selectivity index (SI) values for the extracts/compounds were obtained by dividing cytotoxicity LC50 values of normal (Vero) cells by those of the cancer cells.

The test system of data set [7] is MCF-7. Details: method as in PMID 35453556, PMID 21294076. Conditions: cited from earlier work.
Data set [8] deals with one fungal and five bacterial strains. Kind of data set: Serial dilution microplate MIC, whole panel. Conditions: isolated compounds, all tested strains; highest concentration 250 µg/mL; read-out: MIC against all tested microorganisms. Format: cell-based. As for the experimental part: as §1
Data set [9] relates to Aspergillus niger. Details: method as in PMID 19844829, PMID 35453556. The settings on record: cited from earlier work.
Data set [10] has as its system Staphylococcus aureus, Bacillus thuringiensis, Escherichia coli, Enterobacter cloacae, and Klebsiella pneumoniae. Set-up: method as in PMID 12120818. The settings on record: 1 mg of compound; cited from earlier work.
For data set [11], the system named is Staphylococcus aureus. Set-up: method as in ref 36 = [36]; 36. Koay Y.C. Wong K.C. Hasnah O. Ibrahim E.M.S. Mohammad Z.A. Chemical constituents and biological activities of Strobilanthes crispus L. Rec. Nat. Prod. 2013 7 59 64. The settings on record: cited from earlier work.
Data set [12] relates to Salmonella Typhimurium. Details: method as in ref 36 = [36]; 36. Koay Y.C. Wong K.C. Hasnah O. Ibrahim E.M.S. Mohammad Z.A. Chemical constituents and biological activities of Strobilanthes crispus L. Rec. Nat. Prod. 2013 7 59 64. The settings on record: cited from earlier work.
Data set [13] has as its system MRC-5. Set-up: method as in PMID 35453556, PMID 21294076. Conditions: cited from earlier work.
In data set [14] the test system is A431 squamous carcinoma cell line. Set-up: method as in PMID 35453556, PMID 21294076. The settings on record: cited from earlier work.
The test system of data set [15] is Escherichia coli. Details: method as in ref 36 = [36]; 36. Koay Y.C. Wong K.C. Hasnah O. Ibrahim E.M.S. Mohammad Z.A. Chemical constituents and biological activities of Strobilanthes crispus L. Rec. Nat. Prod. 2013 7 59 64. The settings on record: cited from earlier work.

In the case of `CC1(C)CC[C@]2(C)CC=C3[C@]4(C)CC[C@H]5C(C)(C)[C@@H](O)CC[C@]5(C)[C@H]4CC[C@@]3(C)[C@@H]2C1` [Compound 3β-Taraxerol, 3β-taraxerol], the MIC in data set [1] (Salmonella enterica, isolated compounds, read-out: Minimum inhibitory concentration (MIC) S. Typhimurium) was 250 µg/mL (≈ 586 µM); in [2] (Escherichia coli, ATCC25922, isolated compounds, read-out: Minimum inhibitory concentration (MIC) E. coli) it was 250 µg/mL (≈ 586 µM); in data set [3] (Enterococcus faecalis, ATCC29212, isolated compounds, read-out: Minimum inhibitory concentration (MIC) E. faecalis), over 250 µg/mL; in [4] (Pseudomonas aeruginosa, ATCC27853, isolated compounds, read-out: Minimum inhibitory concentration (MIC) P. aeruginosa), over 250 µg/mL; in [5] (Staphylococcus aureus, ATCC29213, isolated compounds, read-out: Minimum inhibitory concentration (MIC) S. aureus) it was 250 µg/mL (≈ 586 µM); in [8], over 250 µg/mL. Further, in [1] (in brackets, Vero LC50 vs MIC), the “Selectivity index S. Typhimurium” value was over 0.8. In addition, in data set [2] (in brackets, Vero LC50 vs MIC), the “Selectivity index E. coli” value is listed as over 0.8. In addition, in data set [3] (in brackets, Vero LC50 vs MIC), the “Selectivity index E. faecalis” value is given as under 0.8. The “Selectivity index P. aeruginosa” value in data set [4] (in brackets, Vero LC50 vs MIC) was under 0.8. Besides, the “Selectivity index S. aureus” value in [5] (in brackets, Vero LC50 vs MIC) is over 0.8. In data set [6], the CC50 at 48 h was over 200 µg/mL. In addition, the “Cytotoxicity MCF-7” value in [7] was “inactive”. Moreover, in [9], the “MIC Aspergillus niger” value is 100 µg/mL (≈ 234 µM). Moreover, the “Antimicrobial activity against two Gram-positive and three Gram-negative bacteria” value in data set [10] is “moderate antimicrobial activity”. Moreover, the “MIC Staphylococcus aureus” value in data set [11] is 15.6 µg/mL (≈ 36.6 µM). Further, the “MIC Salmonella Typhimurium” value in [12] is reported as 62.5 µg/mL (≈ 146 µM). Further, the “Cytotoxicity MRC-5” value in data set [13] was “inactive”. Also, the “Cytotoxicity A431” value in [14] is 2.65 µg/mL. Also, the “MIC Escherichia coli” value in data set [15] is listed as 62.5 µg/mL (≈ 146 µM).
